Entries after “also recorded” stand apart in the source; their conditions may differ.
Key:
[1] = tested on: Saccharomyces cerevisiae wild type strain BY4743; experiment: AF1 yeast metabolite analysis by GC-MS and LC-MS; type: cell-based
Arabidopsis thaliana [2] = experiment: MOA1 biochemical (metabolite) profiling by LC-MS and GC-MS; conditions: for stress-related metabolites: within one hour after spraying
[3] = tested on: Arabidopsis thaliana plants; experiment: SOA1 phenotypic analysis of herbicide-treated plants; type: in vivo; conditions: for characteristic symptoms (phenotype): herbicide-treated plants; for Symptom Class: three-week-old plants, foliar spray
Magnaporthe grisea = type: cell-based
Arabidopsis thaliana [4] = experiment: MOA1 gene expression profiling (22,000-gene microarray); conditions: for No. of Lethal Genes Altered: regulated genes compared to internal list of essential genes
[5] = numeric value standardized to mock treated

## CC(=O)N1CCN(c2ccc(OCC3COC(Cn4ccnc4)(c4ccc(Cl)cc4Cl)O3)cc2)CC1 (stereo not shown) [Ketoconazole]
[1]; P < 0.1, 2×MIC, two hours
  # Compounds perturbed: 15

## O=C(O)CNCP(=O)(O)O [Glyphosate]
Arabidopsis thaliana [2]; 20 min, p < 0.05
  Number of Metabolites Changed: Total #: 4
Arabidopsis thaliana [2]; after one hour
  tyrosine (downstream of SOA) relative to the control: decreased
[3]
  characteristic symptoms (phenotype): anthocyanin accumulation in the older leaves accompanied by chlorosis of the newly emerging leaves
  Symptom Class: 4
[3]; [5]
  tMic Dev.: 2
Magnaporthe grisea; 1.0 mg/ml
  growth inhibition with aromatic amino acids included in the media: remediated
Magnaporthe grisea; ammonium or glutamine as nitrogen source
  growth of M. grisea (Tier 4): Little growth defect

## CC(C)N1C(=O)c2ccccc2NS1(=O)=O [Bentazon]
[3]
  characteristic symptoms (phenotype): rapid and widespread leaf necrosis

## CC(C)OC(=O)Nc1cccc(Cl)c1 [Chloropropham]
Arabidopsis thaliana [2]
  stress-related metabolites: neither butylate nor chlorpropham treatment resulted in many changes

## CC[C@@H]([C@H](C)O)n1ncn(-c2ccc(N3CCN(c4ccc(OC[C@@H]5CO[C@@](Cn6cncn6)(c6ccc(F)cc6F)C5)cc4)CC3)cc2)c1=O [Posaconazoie]
[1]; LC
  Fold Change of luteolin: 0

## CCSC(=O)N(CC(C)C)CC(C)C [Butylate]
Arabidopsis thaliana [2]
  stress-related metabolites: neither butylate nor chlorpropham treatment resulted in many changes

## C[n+]1ccc(-c2cc[n+](C)cc2)cc1 [Paraquat]
[3]
  characteristic symptoms (phenotype): rapid and widespread leaf necrosis
  Symptom Class: 7

## CCc1cnc(C2=NC(C)(C(C)C)C(=O)N2)c(C(=O)O)c1 (stereo not shown) [Imazethapyr]
[3]
  characteristic symptoms (phenotype): anthocyanin accumulation in the older leaves accompanied by chlorosis of the newly emerging leaves

## CC[C@@H]([C@H](C)O)n1ncn(-c2ccc(N3CCN(c4ccc(OC[C@@H]5CO[C@@](Cn6cncn6)(c6ccc(F)cc6F)C5)cc4)CC3)cc2)c1=O [Posaconazote]
[1]; detected metabolite porphobilinogen, platform nLC
  Fold Change, porphobilinogen: 0

## Nc1nc[nH]n1 [Amitrole]
[3]
  characteristic symptoms (phenotype): leaf bleaching and leaf enlargement

## CP(=O)(O)CCC(N)C(=O)O (stereo not shown) [Glufosinate]
[3]
  characteristic symptoms (phenotype): Chlorosis and leaf curling
  Symptom Class: 3
[3]; [5]
  tMic Dev.: 1
Arabidopsis thaliana [4]
  No. of Lethal Genes Altered: 10

## c1cc[n+]2c(c1)-c1cccc[n+]1CC2 [Diquat]
[3]
  characteristic symptoms (phenotype): rapid and widespread leaf necrosis
  Symptom Class: 7
[3]; [5]
  tMic Dev.: 2

## COC(=O)c1cc(Oc2ccc(Cl)cc2Cl)ccc1[N+](=O)[O-] [Bifenox]
[3]
  characteristic symptoms (phenotype): Necrotic leaf flecks

## O=C(O)c1ccccc1C(=O)Nc1cccc2ccccc12 [Naptalam]
Arabidopsis thaliana [4]
  No. of Lethal Genes Altered: 3

## CC(C)C1(C)N=C(c2ncccc2C(=O)O)NC1=O (stereo not shown) [Imazapyr]
[3]
  characteristic symptoms (phenotype): anthocyanin accumulation in the older leaves accompanied by chlorosis of the newly emerging leaves

## O=C(O)c1cc(Oc2ccc(C(F)(F)F)cc2Cl)ccc1[N+](=O)[O-] [Acifluorfen]
[3]
  characteristic symptoms (phenotype): Necrotic leaf flecks

## CSc1nnc(C(C)(C)C)c(=O)n1N [Metribuzin]
[3]
  characteristic symptoms (phenotype): rapid and widespread leaf necrosis

## CS(=O)(=O)c1cc(C(F)(F)F)ccc1C(=O)c1cnoc1C1CC1 [Isoxaflutole]
Arabidopsis thaliana [2]; early time points
  Alpha-tocopherol levels relative to the control: not significantly changed
Arabidopsis thaliana [2]; early time points (up to 1 hour)
  tyrosine and phenylalanine relative to the control: up-regulated; also recorded: began to accumulate
Arabidopsis thaliana [4]; 1 hr
  alterations in the expression of genes involved in the homogentisate biosynthetic pathway: not observed
Arabidopsis thaliana [4]
  No. of Lethal Genes Altered: 15

## COC(=O)NS(=O)(=O)c1ccc(N)cc1 [Asulam]
Arabidopsis thaliana [4]
  No. of Lethal Genes Altered: 5

## OC(Cn1cncn1)(Cn1cncn1)c1ccc(F)cc1F [Fluconazole]
[1]; GC
  Fold Change of TMS mevalonic acid lactone: 0.1434
  Fold Change of squalene: 0.1999
  Fold Change of tetradecanoic acid: 0.07967
  Fold Change of threonine2: 0.5053
  Fold Change of threonine3: 0.2513
  Fold Change of tms glutamine3: 0.7271
  Fold Change of tms lysine4: 0.3657
  Fold Change of tms tyrosine2: 0.8643
  Fold Change of tms tyrosine3: 0.3321
  Fold Change of valine: 0.2727
[1]; nLC
  Fold Change of retinoic acid: 0
  Fold Change of salicylic/HObenzoic: 0
  Fold Change of selenoDLmethionine: −0.5748
  Fold Change of serine: 0.3936
  Fold Change of shikimic acid: 0
  Fold Change of sinapinic acid: 0
  Fold Change of sorbitol/mannitol: 0.365
  Fold Change of succinic: 0.3094
  Fold Change of sucrose: 0.3104
  Fold Change of sugar-phosphate: −0.05306
  Fold Change of tetradecanoic acid: 0.5495
  Fold Change of threonine/homoserin: 0.3257
  Fold Change of thymine: 0
  Fold Change of tryptophan: 1.649
  Fold Change of tyrosine: 0.2303
  Fold Change of uracil: 1.256
  Fold Change of uridine: 0.3463
  Fold Change of urocanic acid: 0
  Fold Change of valine: 0.3235
  Fold Change of xanthosineDiH2O: 0
  Fold Change of zeatin: 0
[1]; pLC
  Fold Change of riboflavin: 0
  Fold Change of selenoDLmethionine: −0.6865
  Fold Change of serine: 0.11
  Fold Change of sugar-phosphate: 0
  Fold Change of thiamine: 0
  Fold Change of threonine/homoserin: 0.1604
  Fold Change of thymine: 0
  Fold Change of tryptophan: 0
  Fold Change of tyrosine: 0.1099
  Fold Change of uric acid: 0
  Fold Change of urocanic acid: 0
  Fold Change of xanthosine(diH2O): 0
  Fold Change of zeatin: 0
[1]; platform GC
  Fold Change of campesterol: 0
  Fold Change of desmosterol: 0
  Fold Change of octadecanoic acid: 0.082
[1]; platform LC
  Fold Change of abscisic acid: 0
  Fold Change of adenosine: 0
[1]; platform nLC
  Fold Change of 4-methylcatechol: 0
  Fold Change of 5hydroxyLtryptophan: 0
  Fold Change of 6-benzylaminopurine: 0
  Fold Change of NacetylDglucosamine: 0
  Fold Change of NacetylLornithine: 0
  Fold Change of abscisic acid: 0
  Fold Change of adenine: 0
  Fold Change of adenosine: 0
  Fold Change of anthranilic acid: 0
  Fold Change of argininosuccinate: 0
  Fold Change of benzoic acid: 0
  Fold Change of catechol: 0
  Fold Change of cinnamic acid: 0
  Fold Change of citricanoic/itaconi: 0
  Fold Change of citrulline: 0
  Fold Change of coumaric acid: 0
  Fold Change of cytosine: 0
  Fold Change of diaminopimelic acid: 0
  Fold Change of dihydrofolic acid: 0
  Fold Change of estrone: 0
  Fold Change of farnesol: 0
  Fold Change of folic acid: 0
  Fold Change of gibberellic: 0
  Fold Change of glutamine/lysine: 0.3309
  Fold Change of guanine: 0
  Fold Change of histidine: 0
  Fold Change of homogentisic/uric: 0
  Fold Change of hydrocortisone: 0
  Fold Change of indole3pyruvic acid: 0
  Fold Change of jasmonic acid: 0
  Fold Change of kinetin: 0
  Fold Change of luteolin: 0
  Fold Change of malonic acid: 0
  Fold Change of methionine: 0
  Fold Change of orotic acid: 0
  Fold Change of phenylpyruvic acid: 0
  Fold Change of phosphoenolpyruvate: 0
  Fold Change of pinitol: 0
  Fold Change of porphobilinogen: 0
[1]; platform pLC
  Fold Change of 4-aminobenzoic acid: 0
  Fold Change of 4-methylcatechol: 0
  Fold Change of 5hydroxyLtryptophan: 0
  Fold Change of 6benzylaminopurine: 0
  Fold Change of NacetylDglucosamine: 0
  Fold Change of NacetylLglutamate: 0
  Fold Change of allantoic acid: 0
  Fold Change of anthranilic acid: 0
  Fold Change of argininosuccinate: 0
  Fold Change of biotin: 0
  Fold Change of caffeine: 0
  Fold Change of citric acid TME: 0
  Fold Change of cytidine: 0
  Fold Change of cytosine: 0
  Fold Change of diaminopimelic acid: 0
  Fold Change of dihydrofolic acid: 0
  Fold Change of dipicolinic acid: 0
  Fold Change of folic acid: 0
  Fold Change of glucosamine: 0
  Fold Change of glucosamine6PO4: 0
  Fold Change of histidine: 0
  Fold Change of hydrocortisone: 0
  Fold Change of itaconic acid dimes: 0
  Fold Change of kinetin: 0
  Fold Change of luteolin: 0
  Fold Change of niacinamide: 0
  Fold Change of nopaline: 0
  Fold Change of phosphoenolpyruvate: 0
  Fold Change of progesterone: 0

## COc1nc(C)nc(NC(=O)NS(=O)(=O)c2ccccc2Cl)n1 [Chlorsulfuron]
[3]
  characteristic symptoms (phenotype): anthocyanin accumulation in the older leaves accompanied by chlorosis of the newly emerging leaves
Arabidopsis thaliana [4]
  No. of Lethal Genes Altered: 8

## O=C(O)COc1ccc(Cl)cc1Cl [2,4-D]
[3]; [5]
  tMic Dev.: 2
[3]
  Symptom Class: 5

## CN(C)C(=O)Nc1ccc(Cl)c(Cl)c1 [Diuron]
[3]
  characteristic symptoms (phenotype): rapid and widespread leaf necrosis
  Symptom Class: 7
[3]; [5]
  newLeafAnthocyanins Dev.: newLeafAnthocyanins 0
  tMic Dev.: 1

## CCNc1nc(Cl)nc(NC(C)C)n1 [Atrazine]
[3]
  characteristic symptoms (phenotype): rapid and widespread leaf necrosis
